Source: patent publication US9321759B2, “Methods and use of bifunctional enzyme-building clamp-shaped molecules” (The Trustees Of The University Of Pennsylvania, priority 2011, dated 2016)

What was measured:
[1] = biological target: T1, EGFR (Homo sapiens, UniProt P00533); experiment: Phosphorylation of EGFR Tyr residues in NE91 cells (Western blot); type: cell-based; parameters: expressed in transfected cells; host or cells: NE91 mouse fibroblasts; conditions: FIG. 3
Method: NE91 cells (mouse fibroblasts over-expressing wild type human type EGFR) were starved overnight, incubated with an exemplary mutation mimicking compound (designated EEO3, see below; 0.1 μM; lanes 2, 6 of FIG. 2), Tarceva® (0.1 μM; lanes 3, 7 of FIG. 2), or both (lanes 4, 8 of FIG. 2) for one hour, and harvested (lanes 1-4 of FIG. 2), or induced with EGF (50 ng/mL) for 15 minutes and harvested. Equal amounts of total protein were loaded on 10% SDS-PAGE gel, separated, transferred to a PVDF membrane, and probed with pY99, pERK antibodies (Santa Cruz Biotechnology), or antibodies against specific phosphotyrosines of EGFR (pY845, pY1068, pY992) or AKT phosphor-serine (473; Cell Signaling Technology). Total EGFR and γ-tubulin levels were determined as controls using the 1005 (Santa Cruz Biotechnology) and GTU88 (Sigma) Abs, respectively.
To estimate the inhibitory activity of Compound C318 on EGFR signaling, its effect on the phosphorylation of specific Tyr residues of EGFR kinase was tested (see FIG. 3). The methods used were the same as described in Example 3.

[2] = biological target: T1, EGFR; experiment: EGFR kinase assay, HotSpot technology; type: biochemical; parameters: purchased Reaction Biology Corp. (Malvern, Pa.); conditions: ATP 10 μmol/L, substrate poly[Glu:Tyr]
Method: (§1) In an additional set of tests, EGFR assays were done to determine IC50 values using HotSpot^SM technology with the peptide substrate poly[Glu:Tyr] (4:1, 0.2 mg/ml). These tests were conducted by Reaction Biology Corp. (Malvern, Pa.; http://www.reactionbiology.com). Kinase reactions were carried out in 20 mmol/L HEPES (pH 7.5), 10 mmol/L MgCl2, 1 mmol/L EGTA, 0.02% Brij 35, 0.02 mg/mL bovine serum albumin, 2 mmol/L DTT, and 1% DMSO. The final concentration of ATP was 10 μmol/L. Purified recombinant kinases were incubated with serial 3-fold dilutions of test compounds starting at a final concentration of 1 μmol/L. ATP concentration was 10 μmol/L. Dose response curves were fitted using Prism 5.0 from Graph-Pad Software.

[3] = biological target: T2, EGFR (L858R, T790M) (Homo sapiens, UniProt P00533, L858R/T790M); experiment: Kinase assay with Tarceva-resistant EGFR mutant, HotSpot technology; type: biochemical
T2 construct: purchased Reaction Biology Corp. (Malvern, Pa.)
Method: as §1
All these inhibitors were also tested by the same kinase assay using the Tarceva®-resistant EGFR kinase mutant, EGFR (L858R, T790M).

[4] = test system: EGFR-over-expressing NE91 cells; experiment: Anchorage independent growth (soft agar colony formation) of NE91 cells; type: cell-based, mouse; conditions: 0.1 μM, colonies counted after 3 weeks, FIG. 4(D)
Method: To evaluate the inhibitory effect of C318 on cell proliferation in vitro, the compound was tested for inhibition of the anchorage independent growth of EGFR-over-expressing NE91 cells (FIG. 4). Anchorage independent growth was determined by assessing the colony-forming efficiency of cells suspended in soft agar. Cells (5×10^3) were suspended in a 1 ml top layer (0.375% agarose 10% FBS/DMEM) in 6-cm culture dishes containing a 3 ml cell-free feeder layer consisting of 0.5% agarose in DMEM supplemented with 10% FBS and 20 mM Hepes (pH 7.5). Culture dishes were fed by 0.7 ml 10% FBS/DMEM containing 0.1 uM of C318 or Tarceva® once every 5 days. Colonies were visualized and counted after 3 weeks after staining with p-iodonitrotetrazolium violet (1 mg/ml).

T2 sequence (P00533 25-1210 T790M/L858R): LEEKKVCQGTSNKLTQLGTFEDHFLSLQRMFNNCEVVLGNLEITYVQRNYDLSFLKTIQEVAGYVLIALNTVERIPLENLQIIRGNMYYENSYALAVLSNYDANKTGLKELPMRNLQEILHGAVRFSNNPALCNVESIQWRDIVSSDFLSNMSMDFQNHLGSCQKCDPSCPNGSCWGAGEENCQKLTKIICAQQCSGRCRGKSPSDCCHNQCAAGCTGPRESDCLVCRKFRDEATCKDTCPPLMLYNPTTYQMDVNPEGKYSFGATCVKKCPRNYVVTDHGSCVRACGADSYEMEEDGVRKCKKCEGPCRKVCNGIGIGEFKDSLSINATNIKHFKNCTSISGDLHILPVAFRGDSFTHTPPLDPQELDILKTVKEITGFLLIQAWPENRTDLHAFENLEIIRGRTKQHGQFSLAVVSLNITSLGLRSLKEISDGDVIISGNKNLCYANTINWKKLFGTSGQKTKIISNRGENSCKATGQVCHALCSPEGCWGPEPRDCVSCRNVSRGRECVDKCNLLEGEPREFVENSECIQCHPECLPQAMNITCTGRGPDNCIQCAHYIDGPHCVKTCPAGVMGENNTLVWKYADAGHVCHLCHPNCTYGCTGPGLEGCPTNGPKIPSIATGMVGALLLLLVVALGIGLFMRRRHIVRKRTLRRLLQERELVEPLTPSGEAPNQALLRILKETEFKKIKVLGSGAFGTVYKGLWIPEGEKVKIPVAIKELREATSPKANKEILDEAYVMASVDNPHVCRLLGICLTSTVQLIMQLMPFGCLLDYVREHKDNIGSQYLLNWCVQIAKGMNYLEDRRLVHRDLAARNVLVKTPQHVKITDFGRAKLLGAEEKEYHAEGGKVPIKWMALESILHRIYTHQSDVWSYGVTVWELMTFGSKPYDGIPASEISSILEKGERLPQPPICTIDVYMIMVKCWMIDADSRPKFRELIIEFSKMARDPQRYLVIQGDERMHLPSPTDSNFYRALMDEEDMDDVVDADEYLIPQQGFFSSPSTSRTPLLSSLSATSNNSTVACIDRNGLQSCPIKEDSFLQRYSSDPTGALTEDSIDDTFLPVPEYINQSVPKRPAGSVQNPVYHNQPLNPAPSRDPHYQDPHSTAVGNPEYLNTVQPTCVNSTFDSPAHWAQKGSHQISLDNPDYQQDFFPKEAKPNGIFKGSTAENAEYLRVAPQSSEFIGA
T1 sequence (P00533 25-1210): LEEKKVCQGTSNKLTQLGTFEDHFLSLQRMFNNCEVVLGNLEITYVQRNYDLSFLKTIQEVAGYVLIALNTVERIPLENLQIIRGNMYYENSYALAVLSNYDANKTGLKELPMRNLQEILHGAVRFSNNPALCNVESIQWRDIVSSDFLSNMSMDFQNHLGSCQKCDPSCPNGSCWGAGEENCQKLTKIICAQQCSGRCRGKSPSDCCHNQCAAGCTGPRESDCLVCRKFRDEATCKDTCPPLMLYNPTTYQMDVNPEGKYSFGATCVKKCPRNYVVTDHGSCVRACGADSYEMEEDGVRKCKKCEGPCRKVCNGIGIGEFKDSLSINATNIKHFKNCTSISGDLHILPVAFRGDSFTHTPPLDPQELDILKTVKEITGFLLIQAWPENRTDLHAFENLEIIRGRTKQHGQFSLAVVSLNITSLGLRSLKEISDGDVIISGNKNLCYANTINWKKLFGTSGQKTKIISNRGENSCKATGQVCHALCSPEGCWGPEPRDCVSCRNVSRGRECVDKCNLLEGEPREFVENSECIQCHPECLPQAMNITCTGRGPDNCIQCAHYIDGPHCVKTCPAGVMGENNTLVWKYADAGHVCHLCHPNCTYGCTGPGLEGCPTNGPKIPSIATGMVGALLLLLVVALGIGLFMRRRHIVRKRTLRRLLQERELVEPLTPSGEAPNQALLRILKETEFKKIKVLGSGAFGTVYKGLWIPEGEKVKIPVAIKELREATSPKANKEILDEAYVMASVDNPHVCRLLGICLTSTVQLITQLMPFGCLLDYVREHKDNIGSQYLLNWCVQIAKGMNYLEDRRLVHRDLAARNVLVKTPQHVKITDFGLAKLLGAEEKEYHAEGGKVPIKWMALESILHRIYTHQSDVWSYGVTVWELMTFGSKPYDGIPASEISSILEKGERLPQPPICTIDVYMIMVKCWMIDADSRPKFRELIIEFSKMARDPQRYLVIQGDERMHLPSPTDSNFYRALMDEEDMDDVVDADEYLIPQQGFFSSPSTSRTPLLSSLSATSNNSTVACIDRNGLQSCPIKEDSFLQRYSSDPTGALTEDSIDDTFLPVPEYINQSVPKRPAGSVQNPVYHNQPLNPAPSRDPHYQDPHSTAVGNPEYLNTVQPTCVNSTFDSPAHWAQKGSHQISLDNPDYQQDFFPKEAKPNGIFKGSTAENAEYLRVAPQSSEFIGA

## O=C(CSCCO)Nc1ccc2ncnc(Nc3cc(Cl)c(Cl)cc3F)c2c1 [Compound C300]
[1]
  inhibitory effects on EGFR Tyr phosphorylation relative to C-318: not as strong as that of C-318

## O=C(CSc1nnc(SCC2CC2)s1)Nc1ccc2ncnc(Nc3cc(Cl)c(Cl)cc3F)c2c1 [Compound C318F]
[1]
  inhibitory effects on EGFR Tyr phosphorylation relative to C-318: not as strong as that of C-318

## O=C(O)CC(Sc1nn(CC(=O)Nc2ccc3ncnc(Nc4cc(Cl)c(Cl)cc4F)c3c2)c(=S)s1)C(=O)O (stereo not shown) [Compound C318N, 2-([4-[([4-[(4,5-dichloro-2-fluorophenyl)amino]quinazolin-6-yl]carbamoyl)methyl]-5-sulfanylidene-4,5-dihydro-1,3,4-thiadiazol-2-yl]sulfanyl)butanedioic acid]
[2]
  IC50: 0.5 to 1 nM
[3]; FIG. 7
  activity to inhibit EGFR (L858R, T790M) kinase, comparison: better activity than C318
[3]; at 100 nM, ATP 10 μmol/L
  inhibition at 0.1 µM: ~20%

## O=C(O)CC(Sc1nnc(SCC(=O)Nc2ccc3ncnc(Nc4cc(Cl)c(Cl)cc4F)c3c2)s1)C(=O)O (stereo not shown) [Compound C318]
[2]
  IC50: 0.5 to 1 nM
[4]
  inhibition of anchorage independent growth: more active than Tarceva®
[1]; compared with Tarceva
  inhibition of phosphorylation of Tyr 992 of EGFR: but not Tyr 992
  inhibition of phosphorylation of Tyr 1068 of EGFR: stronger activity than Tarceva®
[3]; at 100 nM, ATP 10 μmol/L
  inhibition of EGFR(L858R, T790M): about the same inhibition as Tarceva®
